Measurements as given in US10227349B2, “Pyrazolo[1,5-a]pyrimidine compound” (Eisai R&D Management Co., Ltd., priority 2016, dated 2019).

Experiments:
[1] = target: T1, PAR2 (Homo sapiens, UniProt P55085); assay: Intracellular calcium concentration measurement (trypsin-induced calcium elevation, FDSS6000); type: cell-based; conditions: HEK293 cells, trypsin 5 U/mL as agonist, test compound added 30 min before measurement; read-out: Inhibitory activity on intracellular calcium elevation (IC50 (nM))
T1 construct: Human embryonic kidney cell line HEK293 cells cultured using DMEM culture medium; endogenous in cells; host or cells: HEK293
T1 sequence (P55085 26-397): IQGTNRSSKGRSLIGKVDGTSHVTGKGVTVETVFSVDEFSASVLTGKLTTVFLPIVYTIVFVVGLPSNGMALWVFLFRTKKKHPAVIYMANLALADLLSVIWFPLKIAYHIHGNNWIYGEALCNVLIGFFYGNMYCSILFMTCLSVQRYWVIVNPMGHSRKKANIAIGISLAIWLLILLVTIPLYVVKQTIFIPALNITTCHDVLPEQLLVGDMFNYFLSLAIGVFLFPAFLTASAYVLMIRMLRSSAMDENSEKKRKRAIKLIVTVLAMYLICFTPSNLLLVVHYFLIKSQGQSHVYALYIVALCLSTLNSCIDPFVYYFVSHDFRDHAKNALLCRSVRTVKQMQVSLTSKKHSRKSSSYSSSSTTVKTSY
Description: In the present specification, examples of the measurement method for the PAR2 inhibitory activity include measurement method for a concentration elevation of intracellular calcium; measurement method for a production increase of intracellular inositol trisphosphate; measurement method for an increase in intracellular protein phosphorylation by protein kinase C and MAP kinase; and measurement method for a production amount or a release amount of inflammation-related physiologically active substances such as cytokine, chemokine, prostaglandin and nitric monoxide. Examples of the measurement method for an elevation of intracellular calcium concentration include a method wherein a calcium-binding fluorescent probe is allowed to be incorporated in advance into a cultured cell line or an animal-derived isolated cell having PAR2, or a cell in which PAR2 is artificially expressed, a protease having the PAR2 activity function such as trypsin or a PAR2 agonist (synthetic peptides such as SLIGKV-NH2 (SEQ ID NO: 1) and SLIGRL-NH2 (SEQ ID NO: 2) is added to activate PAR2 whereby fluctuating intracellular calcium concentrations are detected as changes in the fluorescent signal. Alternatively, it is also possible to measure an intracellular calcium concentration by determining the quantity of a fluorescence intensity produced in proportion to the calcium concentration using a calcium-binding luminescent protein overexpressing cell line such as Aequorin. Specifically, examples include the methods described in Test Examples of the present specification.
Human embryonic kidney cell line HEK293 cells cultured using DMEM culture medium (Invitrogen) with 3% fetal bovine serum (3% FBS)-added was prepared to have a concentration of 2×10^5 cells/mL, and plated in a type I collagen-coated 384-well black plate (clear bottom) (Greiner) so as to be 25 μL/well and cultured in a CO2 incubator overnight. FLIPR Calcium Assay Kit (Molecular Devices) prepared with Hanks-20 mM Hepes buffer (pH 7.4) was added to the cells so as to be 25 μL/well and cultured in the CO2 incubator for 1 hour. Trypsin (SIGMA-ALDRICH, catalog number: T8816, Enzyme Commission Number 3.4.21.4) prepared so as to be 5 U/mL as final concentration (BAEE unit) with Hanks-20 mM Hepes buffer (pH 7.4) was added to a 384-well deep well polypropylene plate (Greiner) to be an agonist reagent plate. Thirty minutes before the measurement using FDSS6000 (Hamamatsu Photonics K.K.), a test compound prepared with Hanks-20 mM Hepes buffer (pH 7.4) was added to the cell so as to be 8 μL/well. The cell plate to which the test compound was added and the reagent plate were set on FDSS6000, 22 μL/well of the agonist solution was added from the reagent plate, and the change in intracellular calcium concentration was measured with a CCD camera. The measurement was carried out at 37° C. for 120 seconds and the addition of reagent from the reagent plate to the cell plate was carried out using a built-in 384-well automatic dispenser of FDSS6000.
Note that Reference Example 1 in Table 3 is the compound represented by formula (XIX) synthesized in the above Reference Example 1 (hereinafter, also referred to as Compound (XIX)). Additionally, the “Comparative Compound” in Table 3 is the compound described in Patent Literature 4 represented by the following formula (XX) (I-343; hereinafter, also referred to as Compound (XX)).

[2] = target: T2, PAR2 (Mus musculus, UniProt P55086); assay: Measurement of PAR2 agonist (SLIGRL-NH2)-induced salivation in mouse; type: in vivo; conditions: C57BL/6J male mice, 0.3 mg/mL solution 10 mL/kg orally, 60 min before SLIGRL-NH2 i.p., saliva collected 10 min
T2 construct: orally administered to C57BL/6J male mice (Charles River), 6-10 weeks of age; tissue Charles River; host or cells: Living C57BL/6J male mice (in vivo; saliva secretion)
T2 sequence (P55086 26-399): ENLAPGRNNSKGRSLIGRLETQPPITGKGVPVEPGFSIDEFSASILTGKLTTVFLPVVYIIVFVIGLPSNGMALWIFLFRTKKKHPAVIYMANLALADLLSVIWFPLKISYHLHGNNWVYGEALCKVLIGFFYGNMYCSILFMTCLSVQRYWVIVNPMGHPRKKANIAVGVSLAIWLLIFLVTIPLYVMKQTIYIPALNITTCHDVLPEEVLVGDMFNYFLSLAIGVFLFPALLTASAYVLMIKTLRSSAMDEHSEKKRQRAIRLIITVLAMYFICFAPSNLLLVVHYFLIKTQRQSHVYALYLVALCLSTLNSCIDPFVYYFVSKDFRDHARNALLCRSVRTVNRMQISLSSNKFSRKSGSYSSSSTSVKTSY
Experimental: The test compound was added to a 0.5% carboxymethyl cellulose solution to which 2% DMSO was added, so as to have the final concentration of 0.3 mg/mL, thereby preparing an administration solution containing the test compound. The administration solution containing the test compound (10 mL/kg) was orally administered to C57BL/6J male mice (Charles River), 6-10 weeks of age, using an oral sonde and a syringe. Forty-five minutes after the administration of the test compound, 10 mL/kg of a 20% (w/v) urethane solution was intraperitoneal administered to the mice which were then anesthetized. Sixty minutes after the administration of the test compound, 10 mL/kg of a 0.1 mg/mL SLIGRL-NH2 (SEQ ID NO: 2) solution was intraperitoneally administered as the PAR2 agonist and a cotton ball was immediately placed in the oral cavity of the mouse to collect the saliva. Ten minutes after the administration of the PAR2 agonist, the cotton ball was removed and weighed to measure the amount of saliva secreted.
Note that Reference Example 1 in Table 4 is Compound (XIX). Additionally, Comparative Compound in Table 4 is Compound (XX).

| SMILES | IC50 [1] | Inhibitory activity on the PAR2-dependent saliva secretion (%) [2] |
| --- | --- | --- |
| CO[C@H]1CN(C(=O)c2cc3nc(-c4cc(F)c(Cl)c(F)c4)cc(N(C)c4c(C)cccc4F)n3n2)CC[C@H]1CC(=O)O [Example 10, 2-((3R,4S)-1-(5-(4-chloro-3,5-difluorophenyl)-7-((2-fluoro-6-methylphenyl)(methyl)amino)pyrazolo[1,5-a]pyrimidine-2-carbonyl)-3-methoxypiperidin-4-yl)acetic acid] | 3.46 nM | 92.2% |
| C[C@@H](c1ccccc1)N(C)c1cc(-c2cc(F)c(F)c(F)c2)nc2cc(C(=O)N3CCC(CC(=O)O)CC3)nn12 [Reference Example 1, (S)-2-(1-(7-(methyl(1-phenylethyl)amino)-5-(3,4,5-trifluorophenyl)pyrazolo[1,5-a]pyrimidine-2-carbonyl)piperidin-4-yl)acetic acid, reference compound] | 8.27 nM | 95.9% |
